# From the NIST ThermoML archive (doi:10.1021/je400659p)
# ± gives the expanded uncertainty stated by the source.
# What was measured:
# [1] = refractive index (Na D-line) (dimensionless); xn = mol fraction of the nth substance listed; settings: 101 kPa, Liquid, Standard Abbe refractometry
# [2] = xn = mol fraction of the nth substance listed; settings: 101 kPa, Liquid, Vibrating tube method
smiles,measurement,setting,value
CCn1cc[n+](C)c1.F[B-](F)(F)F [1-ethyl-3-methylimidazolium tetrafluoroborate] + OCCO,refractive index,"[1]; 298.15 K, x1 = 0.1249",1.4239 ± 0.0004
same,refractive index,"[1]; 298.15 K, x1 = 0.2084",1.4206 ± 0.0004
same,refractive index,"[1]; 298.15 K, x1 = 0.3046",1.4176 ± 0.0004
same,refractive index,"[1]; 298.15 K, x1 = 0.4124",1.4151 ± 0.0004
same,refractive index,"[1]; 298.15 K, x1 = 0.4763",1.414 ± 0.0004
same,refractive index,"[1]; 298.15 K, x1 = 0.5565",1.413 ± 0.0004
same,refractive index,"[1]; 298.15 K, x1 = 0.717",1.412 ± 0.0005
same,refractive index,"[1]; 298.15 K, x1 = 0.7826",1.4118 ± 0.0005
same,refractive index,"[1]; 298.15 K, x1 = 0.901",1.4115 ± 0.0005
same,refractive index,"[1]; 298.15 K, x1 = 1",1.4111 ± 0.0005
same,refractive index,"[1]; 303.15 K, x1 = 0.1249",1.4224 ± 0.0004
same,refractive index,"[1]; 303.15 K, x1 = 0.2084",1.4192 ± 0.0004
same,refractive index,"[1]; 303.15 K, x1 = 0.3046",1.4163 ± 0.0004
same,refractive index,"[1]; 303.15 K, x1 = 0.4124",1.4138 ± 0.0004
same,refractive index,"[1]; 303.15 K, x1 = 0.4763",1.4127 ± 0.0004
same,refractive index,"[1]; 303.15 K, x1 = 0.5565",1.4117 ± 0.0004
same,refractive index,"[1]; 303.15 K, x1 = 0.717",1.4105 ± 0.0005
same,refractive index,"[1]; 303.15 K, x1 = 0.7826",1.4103 ± 0.0005
same,refractive index,"[1]; 303.15 K, x1 = 0.901",1.4101 ± 0.0005
same,refractive index,"[1]; 303.15 K, x1 = 1",1.41 ± 0.0005
same,refractive index,"[1]; 313.15 K, x1 = 0.1249",1.4199 ± 0.0004
same,refractive index,"[1]; 313.15 K, x1 = 0.2084",1.4167 ± 0.0004
same,refractive index,"[1]; 313.15 K, x1 = 0.3046",1.4136 ± 0.0004
same,refractive index,"[1]; 313.15 K, x1 = 0.4124",1.411 ± 0.0004
same,refractive index,"[1]; 313.15 K, x1 = 0.4763",1.4099 ± 0.0004
same,refractive index,"[1]; 313.15 K, x1 = 0.5565",1.4089 ± 0.0004
same,refractive index,"[1]; 313.15 K, x1 = 0.717",1.4079 ± 0.0005
same,refractive index,"[1]; 313.15 K, x1 = 0.7826",1.4077 ± 0.0005
same,refractive index,"[1]; 313.15 K, x1 = 0.901",1.4076 ± 0.0005
same,refractive index,"[1]; 313.15 K, x1 = 1",1.4073 ± 0.0005
same,refractive index,"[1]; 323.15 K, x1 = 0.1249",1.4174 ± 0.0004
same,refractive index,"[1]; 323.15 K, x1 = 0.2084",1.4142 ± 0.0004
same,refractive index,"[1]; 323.15 K, x1 = 0.3046",1.4111 ± 0.0004
same,refractive index,"[1]; 323.15 K, x1 = 0.4124",1.4085 ± 0.0004
same,refractive index,"[1]; 323.15 K, x1 = 0.4763",1.4074 ± 0.0004
same,refractive index,"[1]; 323.15 K, x1 = 0.5565",1.4064 ± 0.0004
same,refractive index,"[1]; 323.15 K, x1 = 0.717",1.4054 ± 0.0005
same,refractive index,"[1]; 323.15 K, x1 = 0.7826",1.4054 ± 0.0005
same,refractive index,"[1]; 323.15 K, x1 = 0.901",1.4053 ± 0.0005
same,refractive index,"[1]; 323.15 K, x1 = 1",1.4051 ± 0.0005
same,mass density,"[2]; 293.15 K, x1 = 0.1249",1161.63 ± 0.26 kg/m3
same,mass density,"[2]; 293.15 K, x1 = 0.2084",1184.1 ± 0.3 kg/m3
same,mass density,"[2]; 293.15 K, x1 = 0.3046",1205.75 ± 0.38 kg/m3
same,mass density,"[2]; 293.15 K, x1 = 0.4124",1224.93 ± 0.5 kg/m3
same,mass density,"[2]; 293.15 K, x1 = 0.4763",1234.72 ± 0.57 kg/m3
same,mass density,"[2]; 293.15 K, x1 = 0.5565",1245.69 ± 0.68 kg/m3
same,mass density,"[2]; 293.15 K, x1 = 0.717",1264.34 ± 0.93 kg/m3
same,mass density,"[2]; 293.15 K, x1 = 0.7826",1271.14 ± 1 kg/m3
same,mass density,"[2]; 293.15 K, x1 = 0.901",1282.2 ± 1.3 kg/m3
same,mass density,"[2]; 293.15 K, x1 = 1",1290.63 ± 1.5 kg/m3
same,mass density,"[2]; 298.15 K, x1 = 0.1249",1157.85 ± 0.26 kg/m3
same,mass density,"[2]; 298.15 K, x1 = 0.2084",1180.23 ± 0.3 kg/m3
same,mass density,"[2]; 298.15 K, x1 = 0.3046",1201.79 ± 0.38 kg/m3
same,mass density,"[2]; 298.15 K, x1 = 0.4124",1220.94 ± 0.49 kg/m3
same,mass density,"[2]; 298.15 K, x1 = 0.4763",1230.74 ± 0.57 kg/m3
same,mass density,"[2]; 298.15 K, x1 = 0.5565",1241.72 ± 0.67 kg/m3
same,mass density,"[2]; 298.15 K, x1 = 0.717",1260.43 ± 0.92 kg/m3
same,mass density,"[2]; 298.15 K, x1 = 0.7826",1267.25 ± 1 kg/m3
same,mass density,"[2]; 298.15 K, x1 = 0.901",1278.35 ± 1.3 kg/m3
same,mass density,"[2]; 298.15 K, x1 = 1",1286.82 ± 1.5 kg/m3
same,mass density,"[2]; 303.15 K, x1 = 0.1249",1154.08 ± 0.26 kg/m3
same,mass density,"[2]; 303.15 K, x1 = 0.2084",1176.36 ± 0.3 kg/m3
same,mass density,"[2]; 303.15 K, x1 = 0.3046",1197.84 ± 0.38 kg/m3
same,mass density,"[2]; 303.15 K, x1 = 0.4124",1216.96 ± 0.49 kg/m3
same,mass density,"[2]; 303.15 K, x1 = 0.4763",1226.77 ± 0.56 kg/m3
same,mass density,"[2]; 303.15 K, x1 = 0.5565",1237.77 ± 0.67 kg/m3
same,mass density,"[2]; 303.15 K, x1 = 0.717",1256.53 ± 0.92 kg/m3
same,mass density,"[2]; 303.15 K, x1 = 0.7826",1263.37 ± 1 kg/m3
same,mass density,"[2]; 303.15 K, x1 = 0.901",1274.51 ± 1.3 kg/m3
same,mass density,"[2]; 303.15 K, x1 = 1",1283.02 ± 1.5 kg/m3
same,mass density,"[2]; 313.15 K, x1 = 0.1249",1146.54 ± 0.26 kg/m3
same,mass density,"[2]; 313.15 K, x1 = 0.2084",1168.63 ± 0.29 kg/m3
same,mass density,"[2]; 313.15 K, x1 = 0.3046",1189.98 ± 0.37 kg/m3
same,mass density,"[2]; 313.15 K, x1 = 0.4124",1209.07 ± 0.48 kg/m3
same,mass density,"[2]; 313.15 K, x1 = 0.4763",1218.9 ± 0.55 kg/m3
same,mass density,"[2]; 313.15 K, x1 = 0.5565",1229.92 ± 0.66 kg/m3
same,mass density,"[2]; 313.15 K, x1 = 0.717",1248.81 ± 0.9 kg/m3
same,mass density,"[2]; 313.15 K, x1 = 0.7826",1255.69 ± 1 kg/m3
same,mass density,"[2]; 313.15 K, x1 = 0.901",1266.9 ± 1.2 kg/m3
same,mass density,"[2]; 313.15 K, x1 = 1",1275.45 ± 1.4 kg/m3
same,mass density,"[2]; 323.15 K, x1 = 0.1249",1138.98 ± 0.25 kg/m3
same,mass density,"[2]; 323.15 K, x1 = 0.2084",1160.91 ± 0.29 kg/m3
same,mass density,"[2]; 323.15 K, x1 = 0.3046",1182.17 ± 0.36 kg/m3
same,mass density,"[2]; 323.15 K, x1 = 0.4124",1201.24 ± 0.47 kg/m3
same,mass density,"[2]; 323.15 K, x1 = 0.4763",1211.09 ± 0.55 kg/m3
same,mass density,"[2]; 323.15 K, x1 = 0.5565",1222.17 ± 0.65 kg/m3
same,mass density,"[2]; 323.15 K, x1 = 0.717",1241.18 ± 0.89 kg/m3
same,mass density,"[2]; 323.15 K, x1 = 0.7826",1248.09 ± 1 kg/m3
same,mass density,"[2]; 323.15 K, x1 = 0.901",1259.36 ± 1.2 kg/m3
same,mass density,"[2]; 323.15 K, x1 = 1",1267.97 ± 1.4 kg/m3
same,mass density,"[2]; 333.15 K, x1 = 0.1249",1131.39 ± 0.25 kg/m3
same,mass density,"[2]; 333.15 K, x1 = 0.2084",1153.19 ± 0.28 kg/m3
same,mass density,"[2]; 333.15 K, x1 = 0.3046",1174.39 ± 0.36 kg/m3
same,mass density,"[2]; 333.15 K, x1 = 0.4124",1193.47 ± 0.46 kg/m3
same,mass density,"[2]; 333.15 K, x1 = 0.4763",1203.36 ± 0.54 kg/m3
same,mass density,"[2]; 333.15 K, x1 = 0.5565",1214.49 ± 0.64 kg/m3
same,mass density,"[2]; 333.15 K, x1 = 0.717",1233.6 ± 0.88 kg/m3
same,mass density,"[2]; 333.15 K, x1 = 0.7826",1240.56 ± 0.99 kg/m3
same,mass density,"[2]; 333.15 K, x1 = 0.901",1251.89 ± 1.2 kg/m3
same,mass density,"[2]; 333.15 K, x1 = 1",1260.55 ± 1.4 kg/m3
same,mass density,"[2]; 343.15 K, x1 = 0.1249",1123.78 ± 0.25 kg/m3
same,mass density,"[2]; 343.15 K, x1 = 0.2084",1145.48 ± 0.28 kg/m3
same,mass density,"[2]; 343.15 K, x1 = 0.3046",1166.65 ± 0.35 kg/m3
same,mass density,"[2]; 343.15 K, x1 = 0.4124",1185.76 ± 0.46 kg/m3
same,mass density,"[2]; 343.15 K, x1 = 0.4763",1195.68 ± 0.53 kg/m3
same,mass density,"[2]; 343.15 K, x1 = 0.5565",1206.88 ± 0.63 kg/m3
same,mass density,"[2]; 343.15 K, x1 = 0.717",1226.11 ± 0.87 kg/m3
same,mass density,"[2]; 343.15 K, x1 = 0.7826",1233.11 ± 0.98 kg/m3
same,mass density,"[2]; 343.15 K, x1 = 0.901",1244.49 ± 1.2 kg/m3
same,mass density,"[2]; 343.15 K, x1 = 1",1253.18 ± 1.4 kg/m3
same,mass density,"[2]; 353.15 K, x1 = 0.1249",1116.15 ± 0.24 kg/m3
same,mass density,"[2]; 353.15 K, x1 = 0.2084",1137.77 ± 0.27 kg/m3
same,mass density,"[2]; 353.15 K, x1 = 0.3046",1158.94 ± 0.35 kg/m3
same,mass density,"[2]; 353.15 K, x1 = 0.4124",1178.1 ± 0.45 kg/m3
same,mass density,"[2]; 353.15 K, x1 = 0.4763",1188.07 ± 0.52 kg/m3
same,mass density,"[2]; 353.15 K, x1 = 0.5565",1199.33 ± 0.62 kg/m3
same,mass density,"[2]; 353.15 K, x1 = 0.717",1218.68 ± 0.86 kg/m3
same,mass density,"[2]; 353.15 K, x1 = 0.7826",1225.73 ± 0.96 kg/m3
same,mass density,"[2]; 353.15 K, x1 = 0.901",1237.16 ± 1.2 kg/m3
same,mass density,"[2]; 353.15 K, x1 = 1",1245.87 ± 1.4 kg/m3
